Entries after “also recorded” stand apart in the source; their conditions may differ.
What was measured:
[1] = test system: A375 human melanoma cells; assay: Human melanoma xenograft A375 in nude mice; assay type: in vivo; conditions: 120 mg/kg daily intraperitoneal, FIG. 4
Description: The compound was evaluated in conjunction with control, and with a different honokiol analogue, the bis-dichloroacetate. A375 human melanoma cells were injected into nude mice (3 mice pre treatment group) and received vehicle (intralipid) or 120 mg/kg honokiol bisdichloroacetate ester (honokiol DCA) or hexafluoro, via daily intraperitoneal administration. The volume of the tumors was calculated by the formula volume=(width squared times length) 0.52, where width is the shortest dimension.

[2] = test system: primary human endothelial cells; conditions: cited from earlier work
SVR cells [3] = conditions: in vitro; cited from earlier work
angiosarcoma = conditions: nude mice; cited from earlier work
Rac-GTP (active Rac) = assay: Rac activation pull-down assay (GST-PBD, Western blot); assay type: cell-based; conditions: DAOY medulloblastoma cells, FIG. 1
Description: […] Cells were lysed with ice-cold lysis buffer, containing 25 mM HEPES pH 7.5, 150 mM NaCl, 1% NP-40, 10 mM MgCl2, 1 mM EDTA, 10% glycerol and protease inhibitors. A sample was kept for total Rac and Ras level analysis.
The remaining lysate was used for the pull-down (Western Blot) assay to isolate the GTP-loaded forms of Rac or Ras using the p21-binding domain of PAK1 fused to glutathione S-transferase (GST-PBD) (Glaven et al., J. Biol. Chem., 274, 2279-2285 (1999)). The GST-PBD fusion protein was prepared as previously described (Abassi, Y. and Vuori, K. EMBO J. 21, 4571-4582 (2002)).
Activated (GTP-bound) Rac was affinity-precipitated with p21-activated kinase-1 protein binding domain peptide, which binds only to Rac-GTP and not Rac-GDP. p21-Activated kinase-1 protein binding domain-agarose (7.5 μg/mg cell lysate) was added, and the reaction mixture was gently rocked at 4° C. for 60 min. The agarose beads were collected by pulsing for 5 s in a microcentrifuge at 14,000×g, and the beads were washed three times with 0.5 ml of lysis buffer.
The agarose beads were resuspended in 40 μl of 1×SDS sample buffer and boiled for 5 min. The supernatant was separated by SDS-PAGE on a 12% gel, and the proteins were transferred to nitrocellulose membrane. […] After incubation with the secondary antibody, Rac and Ras were detected by enhanced chemiluminescence.

SVR cells [4] = assay: SVR tumor volume, SVR cells grown in DMEM with 0.5% or 10% FBS; assay type: in vivo, mice; conditions: FIG. 3
Description: FIG. 3 is a chart showing the effect of hexafluoro-honokiol on SVR tumor volume […] over time (days) in mice, as compared to control, where the SVR cells were grown in 0.5 and 10% serum Dulbecco's minimal essential media (DMEM).
Having shown that hexafluoro-honokiol appears to show better results than tacrolomis, a further experiment was conducted using SVR cells grown in Dulbecco's Modified Eagle Media (DMEM) supplemented with 0.5% or 10% fetal bovine serum (FBS), according to the techniques described in Bai, et al., J. Biol. Chem., Vol. 278, Issue 37, 35501-35507, Sep. 12, 2003.

SVR angiosarcoma cells = assay: In vivo tumorigenesis, SVR tumor model in mice
Description: SVR (5×10^5) cells were injected into the flank of 6-week-old nude male mice obtained from Charles River Breeding Laboratories. When tumors became visible at approximately 1 week after inoculation, mice received 3 mg/day hexafluoro-honokiol, tacrolomis, or vehicle control suspended in 20% Intralipid (Baxter Healthcare, Deerfield, Ill.) in a total volume of 0.3 ml intraperitoneally. Tumor volume was measured using the formula (width^2×length)×0.52 where width represents the shortest dimension.
The efficacy of the hexafluoro-honokiol compound was then tested in an SVR tumor model in mice, and compared to that of a control and to Tacrolimis. The assay was performed according to the conditions in J Biol Chem. 2003 Sep. 12; 278(37):35501-7, the contents of which are hereby incorporated by reference.
Nude mice injected with 0.5 million SVR angiosarcoma cells were treated with hexafluoro-honokiol (120 mg/kg), Tacrolimis, or control (Cancer Res. 2009 Jun. 1; 69(11):4621-8), with a total of 4 mice in each group. […] The degree of inhibition with hexafluoro-honokiol was more marked than with the same dose of Tacrolimis.

| Molecule | efficacy of the two compounds compared with each other [1] | tumor volume versus control [1] | inhibition of primary human endothelial cells compared with fibroblasts [2] | anti-proliferative activity against SVR cells (SVR cells [3]) | efficacy against angiosarcoma (angiosarcoma) | levels of total Rac (Rac-GTP (active Rac)) | levels of Rac-GTP (active Rac) (Rac-GTP (active Rac); with PDGF-BB) | tumor volume over time versus control (SVR cells [4]) | weight loss or other toxicities (SVR angiosarcoma cells; 3 mg/day intraperitoneally in 20% Intralipid) | tumor volume versus control (SVR angiosarcoma cells; 120 mg/kg (3 mg/day) intraperitoneally, FIG. 2) | degree of inhibition of tumor volume compared with Tacrolimis (SVR angiosarcoma cells; same dose, FIG. 2) |
| --- | --- | --- | --- | --- | --- | --- | --- | --- | --- | --- | --- |
| C=CCc1ccc(OC(=O)C(Cl)Cl)c(-c2ccc(OC(=O)C(Cl)Cl)c(CC=C)c2)c1 [honokiol bis-dichloroacetate, honokiol bisdichloroacetate ester, reference compound] | comparable efficacy | significantly better than control |  |  |  |  |  |  |  |  |  |
| honokiol |  |  | preferential inhibition | potent anti-proliferative activity | highly effective |  |  |  |  |  |  |
| C=CCc1cc(C(c2ccc(O)c(CC=C)c2)(C(F)(F)F)C(F)(F)F)ccc1O [hexafluoro-honokiol, 2,2-bis(3-allyl-4-hydroxy-phenyl)-1,1,1,3,3,3-hexafluoropropane] | comparable efficacy | significantly better than control |  |  |  | not decreased | significantly decreased; also recorded: disappearance of RAC-GTP | significantly better than control | No weight loss or other toxicities were observed | significantly different at all time points | more marked |

Source: patent publication US8889744B2, “Bis-trifluoromethyl honokiol analogs and their use in treating cancers” (priority 2009, dated 2014)
